Patent US12365670B2, “GLP-IR agonists and uses thereof” (QILU REGOR THERAPEUTICS INC., priority 2018, dated 2025)

Legend:
GLP1R [1] = target: T1, GLP1R (Homo sapiens, UniProt P43220); assay: GLP-1R/β-Arrestin recruitment assay (PathHunter eXpress GLP1R CHO-K1 β-Arrestin GPCR Assay); format: cell-based; design: host or cells: PathHunter CHO-K1 GLP1R β-Arrestin cells (from the kit); details: averaged Bmax, Percentage of Control GLP-1 (7-37), top concentration 10 μM
Text: GLP-1R agonist activity with respect to β-arrestin recruitment can be determined with a cell-based functional assay using PathHunter eXpress GLP1R CHO-K1 β-Arrestin GPCR Assay kit (DiscoverX Cat #93-0300E2CPOM).
The PathHunter β-Arrestin GPCR assay technology utilizes a β-galactosidase ([…]) enzyme that is split into two fragments, the smaller Enzyme Donor (ED) and the larger Enzyme Acceptor (EA). These fragments can be fused to two proteins that may interact with each other, such as EA-β-Arrestin and ED-GLP-1R. The fusions can be stably expressed in a test cell line, such as the PathHunter CHO-K1 GLP1R β-Arrestin cells described below. […]
In this experiment, PathHunter CHO-K1 GLP1R β-Arrestin cells from the assay kit were plated at a density of 1000 or 2000 cells/[…]/well in a 384-well white/clear bottom plates (Greiner Cat #781098). […] Cells were stored in a 37° C. incubator under 5% CO2 and kept for approximately 48 hours until ready to run the assay. […]
Following 90 min incubation, detection reagents were made up by combining 1 part Galacton Star Substrate with 5 parts Emerald II™ Solution, and 19 parts of PathHunter Cell Assay Buffer, respectively. […] Plates were then read on Envision for 0.1 sec/well.
EC50 determinations were made from agonist dose-response curves analyzed with a curve fitting program using a 4-parameter logistic dose response equation. […]

[2] = Monkey oral pharmacokinetic (PK) study; format: in vivo, Cynomolgus monkeys (Macaca fascicularis); details: for plasma concentration-time profile: PO, over about 24 hours after oral dosing, FIGS. 8A-8E; for AUC0-24 h (Arbitrary units) / Cmax (Arbitrary unit): oral
Method: Appropriate volumes of vehicles (e.g., 2% Tween 80 (v:v) and 0.5% MC (w:v) in saline or 0.5% MC (w:v) in water were then added into the mortar containing the ground compounds, and the mixture was then grinded with a pestle until a homogeneous paste was formed. Additional appropriate volumes of vehicles were added into the mortar containing each compound, and the mixture was grinded further with the pestle until a homogeneous suspension was obtained.
The suspension was then transferred into a glass bottle. The mortar and the pestle were rinsed with the vehicle until no compound was left in the mortar or on the pestle.
The rest of the vehicle was added to make up the final dosing volume of about 1 mg/mL or 2 mg/mL (i.e., final dosing volume of about 5 mL/kg), and the homogenous suspension was continuously stirred prior to and during the dosing.
Non-nave Cynomolgus male monkeys (n=3/test article; sourced from Hainan Jingang Biotech Co., Ltd., Nayang Xintan, Fucheng Town, Qiongshan District, Haikou City, Hainan Province, China); or non-naïve aged, obese, and diabetic male Macaca fascicularis monkeys (n=3/test article, Source: Kunming Biomed International Colony) were used in pre-clinical in vivo studies. All non-nave Cynomolgus male monkeys were approximately 3 to 5 years old, weighed about 2.5-5 kg, and were within ±20% of the average body weight. All non-nave aged, obese, and diabetic male Macaca fascicularis monkeys were approximately 12 to 20 years old, weighed about >8-12 kg.
All animals were fasted overnight before dosing, and the food were supplied approximately 4 hours post dose (with free access to water all the time).
Animals were restrained at designated time points for blood sampling. Approximately 500 μL of blood samples was taken via cephalic or saphenous vein into EDTA-K2 tubes. Blood samples were put on wet ice before centrifugation.
For oral administration (PO) of either Dose 1 or Dose 2: blood samples were collected at pre-dose, and at 15 min, 30 min, 1 hr, 2 hr, 4 hr, (6 hr for compounds 19 and 28 with cynomolgus monkeys only), 8 hr, 12 hr, and 24 hr post dose (i.e., 9 or 10 total time points for each compound at each dose).
The blood samples were centrifuged at approximately 2,000-4,000 rpm for about 10-15 minutes at 2-8° C., and each resulting plasma portion was then transferred into an individual tube.
LC-MS/MS methods were developed, and bioanalysis for the test articles in monkey plasma was performed according to the developed LC-MS/MS methods.
Undiluted plasma samples: An aliquot of 20-50 μL plasma sample was mixed with 200 μL of ACN or MeOH containing one of the internal standards (IS, e.g., Diclofenac or Terfenadine) The mixture was then vortexed for about 1-5 min, and centrifuged at about 4,000-5,800 rpm for about 10-15 min. An aliquot of 1 μL supernatant was used for LC-MS/MS analysis.
Plasma samples with 10-fold dilution: An aliquot of 2 μL plasma sample was first mixed with 18 μL of blank plasma, then 200 μL of ACN containing 100 ng/mL IS (e.g. Diclofenac) was added to the mixture. The mixture was then vortexed for about 10 min, and was centrifuged at about 5,800 rpm for about 10 min. An aliquot of 1 μL supernatant was used for LC-MS/MS analysis.
MS conditions: Positive ion, ESI, MRM detection with parent and daughter ions, internal standard Diclofenac. • Compound ID: Compounds 19, 28, 29, 225 or 418 (control) HPLC conditions Method 1: • Mobile Phase A: H2O-0.025% FA-1 mM NH4OAC • Mobile Phase B: MeOH-0.025% FA-1 mM NH4OAC
Pharmacokinetics parameters, including area under the curve (AUC0-t), maximum plasma concentration (Cmax), time to reach maximum plasma concentration (Tmax), oral bioavailability (F %), etc., were calculated using Phoenix software (Version 6.4) and non-compartment model.

GLP1R [3] = target: T1, GLP1R; assay: β-Arrestin-mediated GLP1R internalization assay (PathHunter engineered U2OS cells); format: cell-based; design: host or cells: PathHunter engineered U2OS cells; details: averaged Bmax, Percentage of Control GLP-1 (7-37), top concentration 10 μM
Text: A similar assay can also be used to assess the extent of signal attenuation due to GLP-1R internalization (the β-Arrestin Internalization Assay). In this assay, activated GLP1R Internalization cells were engineered to co-express an untagged GLP1R, Enzyme Acceptor (EA) tagged β-Arrestin, and a ProLink™ (PK) tag localized to the endosomes. Activation of the GLP1R induces β-Arrestin recruitment, which leads to internalization of the Receptor/Arrestin-EA complex in PK-tagged endosomes. This forces complementation of the two β-galactosidase enzyme fragments (EA and PK) to form a functional enzyme that hydrolyzes substrate to generate a chemiluminescent signal. […]
Specifically, PathHunter engineered U2OS cells from the assay kit (Cat #93-0724E3CP0L) were plated at a density of 2000 cells/20 μL/well in a 384-well white/clear bottom plates (Greiner Cat #781098). […] Cells were stored in a 37° C. incubator and kept for approximately 48 hours until ready for the assay. […]
Following 180 min incubation, detection reagents were made up by combining 1 part Galacton Star Substrate with 5 parts Emerald II™ Solution, and 19 parts of PathHunter Cell Assay Buffer, respectively. […] Plates were then read on Envision for 0.1 sec/well.
EC50 determinations were made from agonist dose-response curves analyzed with a curve fitting program using a 4-parameter logistic dose response equation.

[4] = Dose 1, non-naive Cynomolgus male monkeys

T1 sequence (P43220 24-463): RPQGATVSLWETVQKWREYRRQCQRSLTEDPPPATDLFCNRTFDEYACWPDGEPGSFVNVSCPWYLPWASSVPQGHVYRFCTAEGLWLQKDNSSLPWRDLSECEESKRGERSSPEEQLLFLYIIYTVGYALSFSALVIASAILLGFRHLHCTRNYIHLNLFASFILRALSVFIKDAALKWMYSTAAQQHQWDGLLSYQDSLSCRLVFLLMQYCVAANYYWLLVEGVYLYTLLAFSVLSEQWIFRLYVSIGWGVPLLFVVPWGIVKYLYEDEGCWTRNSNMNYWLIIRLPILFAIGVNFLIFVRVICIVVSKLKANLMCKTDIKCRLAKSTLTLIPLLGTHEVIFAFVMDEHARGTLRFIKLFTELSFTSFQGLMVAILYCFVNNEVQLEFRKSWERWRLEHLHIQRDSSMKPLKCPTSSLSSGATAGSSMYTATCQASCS

Compound	plasma concentration-time profile [2]	AUC0-24 h (Arbitrary units) ([2]; Dose 2, monkeys)	Cmax (Arbitrary unit) ([2]; Dose 2, monkeys)	other results
O=C(O)c1ccc2nc(CN3CCN(c4cccc(NCc5ccc(Cl)cc5F)n4)CC3)n(C[C@@H]3CCO3)c2c1 [Compound 1, (S)-2-((4-(6-(4-chloro-2-fluorobenzylamino)pyridin-2-yl)piperazin-1-yl)methyl)-1-(oxetan-2-ylmethyl)-1 h-benzo[d]imidazole-6-carboxylic acid]	–	–	–	Bmax (POC) (GLP1R [1]): 2.80 POC
N#Cc1ccc(COc2cccc(C3=CCN(Cc4nc5ccc(C(=O)O)cc5n4C[C@@H]4CCO4)CC3)n2)c(F)c1 [Compound 19, (S)-2-((4-(6-(4-cyano-2-fluorobenzyloxy)pyridin-2-yl)-5,6-dihydropyridin-1(2H)-yl)methyl)-1-(oxetan-2-ylmethyl)-1 h-benzo[d]imidazole-6-carboxylic acid]	sustained at a more constant level	–	–	AUC0-24 h (Arbitrary units) [2, 4]: 1130 Arbitrary units; Cmax (Arbitrary unit) [2, 4]: 125 Arbitrary unit
O=C(O)c1ccc2nc(CN3CC=C(c4cccc(OCc5ccc(Cl)cc5F)c4)CC3)n(C[C@@H]3CCO3)c2c1 [Compound 28, (S)-2-((4-(3-((4-chloro-2-fluorobenzyl)oxy)phenyl)-3,6-dihydropyridin-1(2H)-yl)methyl)-1-(oxetan-2-ylmethyl)-1 h-benzo[d]imidazole-6-carboxylic acid]	sustained at a more constant level	–	–	AUC0-24 h (Arbitrary units) [2, 4]: 24900 Arbitrary units; Cmax (Arbitrary unit) [2, 4]: 3910 Arbitrary unit
O=C(O)c1ccc2nc(CN3CC=C(c4ccc(F)c(OCc5ccc(Cl)cc5F)c4)CC3)n(C[C@@H]3CCO3)c2c1 [Compound 29, (S)-2-((4-(3-((4-chloro-2-fluorobenzyl)oxy)-4-fluorophenyl)-3,6-dihydropyridin-1(2H)-yl)methyl)-1-(oxetan-2-ylmethyl)-1 h-benzo[d]imidazole-6-carboxylic acid]	sustained at a more constant level	21800	3380	–
N#Cc1ccc(COc2cccc(C3=CCN(Cc4nc5ccc(C(=O)O)nc5n4C[C@@H]4CCO4)CC3)n2)c(F)c1 [Compound 225, (S)-2-((6-((4-cyano-2-fluorobenzyl)oxy)-3′,6′-dihydro-[2,4′-bipyridin]-1′(2′H)-yl)methyl)-3-(oxetan-2-ylmethyl)-3H-imidazo[4,5-b]pyridine-5-carboxylic acid]	sustained at a more constant level	1500	184	–
O=C(O)c1ccc2nc(CN3CC=C(c4ccc(F)c(OCc5ccc(Cl)cc5F)c4)CC3)n(C[C@@H]3CCO3)c2n1 [Compound 236, (S)-2-((4-(3-((4-chloro-2-fluorobenzyl)oxy)-4-fluorophenyl)-5,6-dihydropyridin-1(2H)-yl)methyl)-3-(oxetan-2-ylmethyl)-3H-imidazo[4,5-b]pyridine-5-carboxylic acid]	–	–	–	Bmax (POC) (GLP1R [3]): 30.0 POC
N#Cc1ccc(COc2cccc(C3CCN(Cc4nc5ccc(C(=O)O)cc5n4C[C@@H]4CCO4)CC3)n2)c(F)c1 [Compound 418, reference compound]	–	774	232	drop in plasma concentration ([2]; over about 24 hours post oral dosing, Dose 2, FIG. 8F): about 10 fold
